Key:
OVCAR-3 cells = assay: Cell Titer-Glo anti-proliferation, OVCAR-3 cells; type: cell-based; conditions: 3 days, read-out: Anti-proliferative activity OVCAR-3 (IC50 class)
Protocol: (§1) A. Evaluation of the Anti-Proliferative Effect of Compounds on BxPC3, HT-29 and OVCAR-3 Cells by the Cell Titer-Glo Method
(§2) Compound solutions of different concentration gradients were prepared. […] The cell growth group without compound was used as a positive control (maximum signal control) and the medium was used as a negative control (minimum signal control), while ensuring that the final level of DMSO in each reaction well was 0.2%. After removing the medium from the 384-well plate, 25 μl of the configured compound at different concentrations was transferred into the well plate and the compound and cells were incubated in the cell incubator at 37° C. with 5% CO2 for 3 days.
(§3) The 384-well plates were removed from the cell incubator and allowed to equilibrate for 1 h to room temperature. 25 μl of Cell Titer-Glo assay was added to each well, lysed on a shaker for 2 min and then read out (Luminescence) using a BMG PHERAStar after 10 min incubation. Calculate the inhibition rate from the luminescence signal.
(§4) to calculate the rate of inhibition of the cells by different concentrations of the compounds. The IC50 of the compound on cell activity inhibition was calculated by fitting a log(inhibitor) vs. response-Variable slope model to GraphPad Prism 6. The fitted equation was: Y=Bottom+(Top-Bottom)/(1+10^((Log IC50−X)*HillSlope)), where Y represents the rate of inhibition and X represents the concentration of the known compound after Log.

BxPC3 cells = assay: Cell Titer-Glo anti-proliferation, BxPC3 cells; type: cell-based, human; conditions: 3 days, read-out: Anti-proliferative activity BxPC3 (IC50 class)
Protocol: as §1, §2, §3, §4

HT-29 cells = assay: Cell Titer-Glo anti-proliferation, HT-29 cells; type: cell-based, human; conditions: 3 days, read-out: Anti-proliferative activity HT-29 (IC50 class)
Protocol: as §1, §2, §3, §4

Row | Structure (SMILES) | IC50 (OVCAR-3 cells) [nM] | IC50 (BxPC3 cells) [nM] | IC50 (HT-29 cells) [nM]
1 | C=CCn1c(=O)c2cnc(Nc3ccc(N4CCC(N(C)C)CC4)c(C)c3)nc2n1-c1ccc2c(n1)[C@](C)(O)C1(CC1)C2 (single isomer, unassigned) [Compound 42a] | 100 to 1000 | 100 to 1000 | 100 to 1000
2 | C=CCn1c(=O)c2cnc(Nc3ccc(N4CCN(C)CC4)cc3)nc2n1-c1ccc2c(n1)C(C)(O)C1(CC1)C2 (single isomer, unassigned) [Compound 3a] | 1000 to 2000 | 1000 to 2000 | 1000 to 2000
3 | C=CCn1c(=O)c2cnc(Nc3ccc(N4CC5CC(C4)N5CCF)cc3)nc2n1-c1ccc2c(n1)C(C)(O)C1(CC2)CC1 (stereo not drawn) [Compound 59b] | 1000 to 2000 | 1000 to 2000 | 100 to 1000
4 | C=CCn1c(=O)c2cnc(Nc3ccc(N4CC5CC(C4)N5C(C)=O)cc3)nc2n1-c1ccc2c(n1)[C@](C)(O)C1(CC2)CC1 (single isomer, unassigned) [Compound 50b] | 100 to 1000 | 100 to 1000 | 100 to 1000
5 | C=CCn1c(=O)c2cnc(Nc3ccc(N4CCC(N(C)C)CC4)cc3)nc2n1-c1ccc2c(n1)C(O)(C(F)(F)F)C1(CC2)CC1 (stereo not drawn) [Compound 54b] | 100 to 1000 | 100 to 1000 | 100 to 1000
6 | C=CCn1c(=O)c2cnc(Nc3ccc(N4CCN(C)CC4)cc3)nc2n1-c1ccc2c(c1)C(O)(CC)C1(CC1)C2 (racemic) [Compound 29] | 100 to 1000 | 2000 to 5000 | 1000 to 2000
7 | C=CCn1c(=O)c2cnc(Nc3ccc(N4CCC5(CCN(C)CC5)CC4)c(C)c3)nc2n1-c1ccc2c(n1)C(O)C1(CC2)CC1 (single isomer, unassigned) [Compound 61a] | 100 to 1000 | 100 to 1000 | 100 to 1000
8 | C=CCn1c(=O)c2cnc(Nc3ccc(N4CCN(C)CC4)c(F)c3)nc2n1-c1ccc2c(n1)C(O)(CC)C1(CC1)C2 (stereo not drawn) [Compound 33] | 2000 to 5000 | 2000 to 5000 | 1000 to 2000
9 | C=CCn1c(=O)c2cnc(Nc3ccc(N4C[C@H]5CN(C)C[C@H]5C4)cc3)nc2n1-c1ccc2c(n1)C(C)(O)C1(CC2)CC1 (mixture of isomers) [Compound 43] | 100 to 1000 | 100 to 1000 | 100 to 1000
10 | C=CCn1c(=O)c2cnc(Nc3ccc(N4CC5CC(C4)N5CCF)cc3)nc2n1-c1ccc2c(n1)[C@](C)(O)C1(CC2)CC1 (single isomer, unassigned) [Compound 59a] | 100 to 1000 | 100 to 1000 | 100 to 1000
11 | C=CCn1c(=O)c2cnc(Nc3ccc(N4C[C@@H](C)O[C@@H](C)C4)cc3)nc2n1-c1ccc2c(n1)[C@@](O)(CC)C1(CC1)C2 (single isomer, unassigned) [Compound 31b] | 1000 to 2000 | 2000 to 5000 | 2000 to 5000
12 | C=CCn1c(=O)c2cnc(Nc3ccc(N4CCC(N(C)C)C(F)C4)cc3)nc2n1-c1ccc2c(n1)C(C)(O)C1(CC2)CC1 (single isomer, unassigned) [Compound 60b] | 100 to 1000 | 100 to 1000 | 100 to 1000
13 | C=CCn1c(=O)c2cnc(Nc3ccc(N4CCN(C(C)C)CC4)cc3)nc2n1-c1ccc2c(n1)C(O)C1(CC2)CC1 (single isomer, unassigned) [Compound 57a] | 2000 to 5000 | 2000 to 5000 | 1000 to 2000
14 | C=CCn1c(=O)c2cnc(Nc3ccc(N4CC5CC(C4)N5C(C)=O)cc3)nc2n1-c1ccc2c(n1)[C@@](C)(O)C1(CC2)CC1 (single isomer, unassigned) [Compound 50a] | 100 to 1000 | 100 to 1000 | 100 to 1000
15 | C=CCn1c(=O)c2cnc(Nc3ccc(N4CCC(N(C)C)CC4)cc3)nc2n1-c1ccc2c(n1)C(C)(O)C1(CC1)C2 (racemic) [Compound 12] | 100 to 1000 | 2000 to 5000 | 100 to 1000
16 | C=CCn1c(=O)c2cnc(Nc3ccc(N4CCC5(CCN(C)CC5)CC4)cc3)nc2n1-c1ccc2c(n1)C(O)(CC)C1(CC1)C2 (racemic) [Compound 27] | 100 to 1000 | 100 to 1000 | 100 to 1000
17 | C=CCn1c(=O)c2cnc(Nc3ccc(N4CCC(N(C)C)CC4)c(C)c3)nc2n1-c1ccc2c(n1)C(C)(O)C1(CC2)CC1 (stereo not drawn) [Compound 52b] | 100 to 1000 | 100 to 1000 | 100 to 1000
18 | C=CCn1c(=O)c2cnc(Nc3ccc(N4CCN(C)CC4)cc3)nc2n1-c1ccc2c(n1)[C@](O)(C(F)(F)F)C1(CC2)CC1 (single isomer, unassigned) [Compound 53a] | 2000 to 5000 | 2000 to 5000 | 1000 to 2000
19 | C=CCn1c(=O)c2cnc(Nc3ccc(N4CCN(C)[C@H](C)C4)cc3)nc2n1-c1ccc2c(n1)[C@@H](O)C1(CC2)CC1 (single isomer, unassigned) [Compound 68a] | 2000 to 5000 | 2000 to 5000 | 1000 to 2000

Row | Structure (SMILES) | IC50 (OVCAR-3 cells) [nM] | IC50 (BxPC3 cells) [nM] | IC50 (HT-29 cells) [nM]
20 | C=CCn1c(=O)c2cnc(Nc3ccc(N4C[C@@H](C)O[C@@H](C)C4)cc3)nc2n1-c1ccc2c(n1)[C@](O)(CC)C1(CC1)C2 (single isomer, unassigned) [Compound 31a] | 5000 to 10000 | 5000 to 10000 | 2000 to 5000
21 | C=CCn1c(=O)c2cnc(Nc3ccc(N4CCN(C)CC4)c(C)c3)nc2n1-c1ccc2c(n1)C(C)(O)C1(CC1)C2 (racemic) [Compound 10] | 100 to 1000 | 2000 to 5000 | 1000 to 2000
22 | C=CCn1c(=O)c2cnc(Nc3ccc(N4CC5CC(C4)N5C(C)C)cc3)nc2n1-c1ccc2c(n1)[C@@](C)(O)C1(CC2)CC1 (single isomer, unassigned) [Compound 35b] | 100 to 1000 | 100 to 1000 | 100 to 1000
23 | C=CCn1c(=O)c2cnc(Nc3ccc(N4CCC5(CCN(C)CC5)CC4)cc3)nc2n1-c1ccc2c(n1)C(O)(CC)C1(CC2)CC1 (stereo not drawn) [Compound 69b] | 1000 to 2000 | 1000 to 2000 | 1000 to 2000
24 | C=CCn1c(=O)c2cnc(Nc3ccc(N4CCC(N(C)C)CC4)c(C)c3)nc2n1-c1ccc2c(n1)C(O)C1(CC2)CC1 (single isomer, unassigned) [Compound 41a] | 100 to 1000 | 1000 to 2000 | 100 to 1000
25 | C=CCn1c(=O)c2cnc(Nc3ccc(N4CCC(N(C)C)CC4)cc3)nc2n1-c1ccc2c(n1)[C@](O)(C(F)(F)F)C1(CC2)CC1 (single isomer, unassigned) [Compound 54a] | 2000 to 5000 | 2000 to 5000 | 1000 to 2000
26 | C=CCn1c(=O)c2cnc(Nc3ccc(N4CC5CC(C4)N5C)cc3)nc2n1-c1ccc2c(n1)C(O)C1(CC2)CC1 (racemic) [Compound 34] | 1000 to 2000 | 1000 to 2000 | 100 to 1000
27 | C=CCn1c(=O)c2cnc(Nc3ccc(N4CC5CC(C4)N5C)cc3)nc2n1-c1ccc2c(n1)[C@H](O)C1(CC2)CC1 (single isomer, unassigned) [Compound 34b] | 1000 to 2000 | 100 to 1000 | 100 to 1000
28 | C=CCn1c(=O)c2cnc(Nc3ccc(N4CCC5(CC4)CN(C)C5)cc3)nc2n1-c1ccc2c(n1)C(C)(O)C1(CC2)CC1 (racemic) [Compound 47] | > 10000 | > 10000 | > 10000
29 | C=CCn1c(=O)c2cnc(Nc3ccc4c(c3)CN(C)CC4(C)C)nc2n1-c1ccc2c(n1)C(C)(O)C1(CC1)C2 (racemic) [Compound 9] | 100 to 1000 | > 10000 | 1000 to 2000
30 | C=CCn1c(=O)c2cnc(Nc3ccc(N4CCN(C)CC4)c(C)c3)nc2n1-c1ccc2c(n1)C(C)(O)C1(CC2)CC1 (racemic) [Compound 8] | 1000 to 2000 | 1000 to 2000 | 100 to 1000
31 | C=CCn1c(=O)c2cnc(Nc3ccc(N4CCC(N(C)C)CC4)cc3)nc2n1-c1ccc2c(n1)C(O)C1(CC2)CC1 (single isomer, unassigned) [Compound 66a] | 2000 to 5000 | 2000 to 5000 | 1000 to 2000
32 | C=CCn1c(=O)c2cnc(Nc3ccc(N4C[C@@H]5C[C@H]4CN5C)cc3)nc2n1-c1ccc2c(n1)[C@](C)(O)C1(CC2)CC1 (single isomer, unassigned) [Compound 45b] | 1000 to 2000 | 1000 to 2000 | 1000 to 2000
33 | C=CCn1c(=O)c2cnc(Nc3ccc(N4CC5CC(C4)N5C(C)C)cc3)nc2n1-c1ccc2c(n1)[C@](O)(CC)C1(CC2)CC1 (single isomer, unassigned) [Compound 36b] | 100 to 1000 | 100 to 1000 | 100 to 1000
34 | C=CCn1c(=O)c2cnc(Nc3ccc(N4CCC(N(C)C)CC4)c(C)c3)nc2n1-c1ccc2c(n1)[C@@](C)(O)C1(CC1)C2 (single isomer, unassigned) [Compound 42b] | 100 to 1000 | 100 to 1000 | 100 to 1000
35 | C=CCn1c(=O)c2cnc(Nc3ccc(N4CC5CC(C4)N5C)cc3)nc2n1-c1ccc2c(n1)[C@](C)(O)C1(CC2)CC1 [Compound 7b] | 100 to 1000 | 100 to 1000 | 100 to 1000
36 | C=CCn1c(=O)c2cnc(Nc3ccc(N4CCC5(CCN(C)CC5)CC4)c(F)c3)nc2n1-c1ccc2c(n1)C(O)C1(CC2)CC1 (single isomer, unassigned) [Compound 62a] | 1000 to 2000 | 1000 to 2000 | 100 to 1000
37 | C=CCn1c(=O)c2cnc(Nc3ccc(N4CC5CC(C4)N5C)cc3)nc2n1-c1ccc2c(n1)C(C)(O)C1(CC1)C2 (stereo not drawn) [Compound 13] | 100 to 1000 | 100 to 1000 | 100 to 1000
